Measurements taken from ChEMBL document CHEMBL4052601, “Glycybridins A-K, Bioactive Phenolic Compounds from Glycyrrhiza glabra” (J Nat Prod, 2017).
Peptide text beside a SMILES is read from it. * marks the point of attachment. Cbz = O=C(OCc1ccccc1)*

Assays:
[1] = molecular target: T1, Tyrosinase (Homo sapiens) (UniProt P14679); details: at 10 µM;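 further: tyrosinase of unspecified origin acting on L-tyrosine, compound preincubated with enzyme for 15 min before adding substrate, inhibition expressed versus control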
T1 sequence (whole entry): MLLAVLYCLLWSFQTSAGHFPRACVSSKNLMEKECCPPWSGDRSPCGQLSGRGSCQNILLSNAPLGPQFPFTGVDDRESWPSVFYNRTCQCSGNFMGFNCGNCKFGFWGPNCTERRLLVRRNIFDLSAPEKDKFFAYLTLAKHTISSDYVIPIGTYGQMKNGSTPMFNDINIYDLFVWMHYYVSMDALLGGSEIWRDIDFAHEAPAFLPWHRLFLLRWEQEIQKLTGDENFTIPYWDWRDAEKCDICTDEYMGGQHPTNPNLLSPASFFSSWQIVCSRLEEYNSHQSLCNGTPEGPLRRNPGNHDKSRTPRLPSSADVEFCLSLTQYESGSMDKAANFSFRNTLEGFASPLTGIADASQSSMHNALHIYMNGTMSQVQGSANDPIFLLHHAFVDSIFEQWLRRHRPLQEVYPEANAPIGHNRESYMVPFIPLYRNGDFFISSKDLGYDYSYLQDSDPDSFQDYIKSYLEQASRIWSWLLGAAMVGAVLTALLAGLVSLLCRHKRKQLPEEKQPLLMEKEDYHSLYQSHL
Description: Inhibition of tyrosinase (unknown origin) using L-tyrosine as substrate at 10 uM preincubated for 15 mins followed by substrate addition relative to control

[2] = test system: Homo sapiens; assay: Inhibition of LPS-induced NF-kappaB (unknown origin) transactivation expressed in human SW480 cells at 10 uM administered 1 hr after LPS stimulation measured after 6 hrs by luciferase reporter gene assay relative to control; assay type: cell-based
[3] = test system: RAW264.7; assay: Antiinflammatory activity against mouse RAW264.7 cells assessed as inhibition of LPS-induced nitric oxide production at 10 uM after 24 hrs by Griess assay relative to control; assay type: functional; details: RAW264.7, 24 h
[4] = test system: A549; assay: Antiproliferative activity against human A549 cells at 10 uM after 24 hrs by MTS assay relative to control; assay type: functional; details: A549, 24 h
[5] = test system: HepG2; assay: Antiproliferative activity against human HepG2 cells at 10 uM after 24 hrs by MTS assay relative to control; assay type: functional; details: HepG2, 24 h
[6] = test system: MCF7; assay: Antiproliferative activity against human MCF7 cells at 10 uM after 24 hrs by MTS assay relative to control; assay type: functional; details: MCF7, 24 h
[7] = molecular target: T2, Tyrosine-protein phosphatase non-receptor type 1 (Homo sapiens) (UniProt P18031); details: at 10 µM;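 further: recombinant enzyme assay with pNPP substrate, inhibition read after 30 min versus untreated control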
T2 sequence (whole entry): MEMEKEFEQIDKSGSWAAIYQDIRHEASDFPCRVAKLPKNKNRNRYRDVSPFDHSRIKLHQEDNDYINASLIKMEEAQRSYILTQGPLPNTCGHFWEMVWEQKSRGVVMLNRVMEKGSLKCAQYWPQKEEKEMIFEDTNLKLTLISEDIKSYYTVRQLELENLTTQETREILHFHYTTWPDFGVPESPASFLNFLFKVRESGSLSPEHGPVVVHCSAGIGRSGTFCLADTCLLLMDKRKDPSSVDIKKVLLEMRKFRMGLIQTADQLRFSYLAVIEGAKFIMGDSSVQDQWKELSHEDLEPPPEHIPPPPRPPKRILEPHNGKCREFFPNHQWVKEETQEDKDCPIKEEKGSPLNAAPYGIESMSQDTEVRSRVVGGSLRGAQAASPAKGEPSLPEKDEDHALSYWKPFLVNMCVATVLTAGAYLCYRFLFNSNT
Description: Inhibition of recombinant human PTP1B using pNPP as substrate at 10 uM after 30 mins relative to control

[8] = test system: SW480; assay: Antiproliferative activity against human SW480 cells at 10 uM after 24 hrs by MTS assay relative to control; assay type: functional; details: SW480, 24 h

SMILES | inhibition [1] | inhibition [7] | inhibition [2] | inhibition at 10 µM [3] | inhibition at 10 µM [4] | inhibition at 10 µM [5] | inhibition at 10 µM [6] | inhibition at 10 µM [8]
COc1ccc([C@@H]2COc3c(ccc4c3C=CC(C)(C)O4)C2)c(O)c1 | 2.2% | 14.6% | 4.1% | 8.5% | 35.9% | 54.2% | 5.3% | 16.1%
COc1ccc2c(c1)O[C@H]1c3ccc(O)c(CC=C(C)C)c3OC[C@@H]21 [LICOAGROCARPIN] | 0% | 4.9% | 0% | 16.7% | 37.3% | 8.3% | 52.9% | 18.2%
COc1ccc([C@@H]2COc3c(ccc4c3C=CC(C)(C)O4)C2)c(O)c1O | 18.4% | 22.4% | 22.1% | 17.3% | 30.2% | 49.6% | 23.3% | 12.9%
CCc1c2c(nc3ccc(OC(=O)N4CCC(N5CCCCC5)CC4)cc13)-c1cc3c(c(=O)n1C2)COC(=O)[C@]3(O)CC [IRINOTECAN] | – | – | – | – | 91.8% | 98.9% | 93.6% | 95%
CC1(C)C=Cc2c(ccc3c2O[C@H]2c4ccc(O)cc4OC[C@@H]32)O1 [PHASEOLIN] | 2.4% | 9.5% | 2.1% | 2.6% | 34.7% | 0% | 6.8% | 0%
CC(C)=CCc1c(O)ccc2c1OC[C@@H](c1ccc3c(c1O)C=CC(C)(C)O3)C2 | 12.9% | 5.5% | 40.2% | 3.6% | 10.2% | 15.9% | 60.9% | 20.2%
CC1(C)C=Cc2c(cc(O)c3c(=O)c(-c4ccc(O)cc4O)coc23)O1 | 28.7% | 57.6% | 0% | 5.6% | 4.3% | 12.7% | 12.7% | 29.6%
CC(C)C[C@@H](C=O)NC(=O)[C@H](CC(C)C)NC(=O)[C@H](CC(C)C)NC(=O)OCc1ccccc1 (Cbz-Leu-Leu-Leu-aldehyde) | – | – | 79.2% | – | – | – | – | –
CC1(C)C=Cc2c(ccc(-c3oc4cc(O)ccc4c3C=O)c2O)O1 | 10.5% | 9.3% | 36.6% | 36.5% | 7.9% | 21% | 35.8% | 5.3%

Second part, led by results:

inhibition [1] | inhibition [7] | SMILES | inhibition [2] | inhibition at 10 µM [3] | inhibition at 10 µM [4] | inhibition at 10 µM [5] | inhibition at 10 µM [6] | inhibition at 10 µM [8]
10.3% | 0.2% | CC(C)=CCc1cc(C[C@@H](O)C(=O)c2ccc(O)cc2O)ccc1O | 23% | 7.1% | 6.1% | 7.2% | 29.5% | 4.2%
13.6% | 10.1% | COc1ccc(C2(O)COc3c(ccc(O)c3CC=C(C)C)C2=O)c(O)c1 (stereo unspecified) | 13.7% | 5.5% | 39.1% | 1.6% | 2.8% | 4.2%
0% | 47.1% | CC(C)=CCc1c(O)ccc(C(=O)/C=C/c2cc(O)c3c(c2)C=CC(C)(C)O3)c1O | 23.1% | 2% | 10.9% | 21.7% | 72% | 34.7%
7.9% | 15.7% | CC(C)=CCc1c(O)ccc([C@@H]2COc3c(ccc(O)c3CC=C(C)C)C2)c1O [KANZONOL X] | 32.9% | 15.7% | 81.6% | 14.9% | 95.9% | 74.4%
7.8% | 4.2% | CC(C)=CCc1cc([C@@H]2CC(=O)c3ccc(O)cc3O2)ccc1O [ABYSSINONE II] | 56.6% | 10.5% | 0% | 44.2% | 42.3% | 0%
